From patent US6962922B2, “Alkynylated quinazoline compounds” (Warner-Lambert Company LLC, priority 2001, dated 2005)

| SMILES | melting point [°C] |
| --- | --- |
| Cn1c(=O)n(Cc2ccc(F)c(F)c2)c(=O)c2cc(C#CCc3ccc(Cl)cc3)ccc21 [Example 30, 6-[3-(4-Chloro-phenyl)-prop-1-ynyl]-3-(3,4-difluoro-benzyl)-1-methyl-1H-quinazoline-2,4-dione] | 163 to 165 |
| Cn1c(=O)n(Cc2ccc(CO)cc2)c(=O)c2cc(C#CCc3ccccc3)ccc21 [Example 24, 3-(4-Hydroxymethyl-benzyl)-1-methyl-6-(3-phenyl-prop-1-ynyl)-1H-quinazoline-2,4-dione] | 161 to 164 |
| Cn1c(=O)n(Cc2cccc(F)c2)c(=O)c2cc(C#CCc3ccccc3)ccc21 [Example 26, 3-(3-Fluoro-benzyl)-1-methyl-6-(3-phenyl-prop-1-ynyl)-1H-quinazoline-2,4-dione] | 143 to 144 |
| Cn1c(=O)n(Cc2cccc(Cl)c2)c(=O)c2cc(C#CCc3ccc(Cl)cc3)ccc21 [Example 31, 3-(3-Chloro-benzyl)-6-[3-(4-chloro-phenyl)-prop-1-ynyl]-1-methyl-1H-quinazoline-2,4-dione] | 169 to 171 |
| CN(C)C(=O)c1ccc(Cn2c(=O)c3cc(C#CCc4ccccc4)ccc3n(C)c2=O)cc1 [Example 19, N,N-Dimethyl-4-[1-methyl-2,4-dioxo-6-(3-phenyl-prop-1-ynyl)-1,4-dihydro-2H-quinazolin-3-ylmethyl]-benzamide] | 171 to 173 |
| Cn1c(=O)n(Cc2ccc(F)c(F)c2)c(=O)c2cc(C#CCn3ccnn3)ccc21 [Example 32, 3-(3,4-Difluoro-benzyl)-1-methyl-6-(3-[1,2,3]triazol-1-yl-prop-1-ynyl)-1H-quinazoline-2,4-dione] | 167 to 169 |
| Cn1c(=O)n(Cc2ccc(F)c(F)c2)c(=O)c2cc(C#CCn3cncn3)ccc21 [Example 33, 3-(3,4-Difluoro-benzyl)-1-methyl-6-(3-[1,2,4]triazol-1-yl-prop-1-ynyl)-1H-quinazoline-2,4-dione] | 185 to 187 |
| Cn1c(=O)n(Cc2ccc(Cl)cc2)c(=O)c2cc(C#CCc3ccccc3)ccc21 [Example 27, 3-(4-Chloro-benzyl)-1-methyl-6-(3-phenyl-prop-1-ynyl)-1H-quinazoline-2,4-dione] | 175 to 176 |
| Cn1c(=O)n(Cc2cccc(Cl)c2)c(=O)c2cc(C#CCc3ccccc3)ccc21 [Example 25, 3-(3-Chloro-benzyl)-1-methyl-6-(3-phenyl-prop-ynyl)-1H-quinazoline-2,4-dione] | 164 to 166 |
| Cn1c(=O)n(Cc2ccc(Cl)c(Cl)c2)c(=O)c2cc(C#CCn3cncn3)ccc21 [Example 34, 3-(3,4-Dichloro-benzyl)-1-methyl-6-(3-[1,2,4]triazol-1-yl-prop-1-ynyl)-1H-quinazoline-2,4-dione] | 171 to 172 |
| Cn1c(=O)n(Cc2ccc(F)c(F)c2)c(=O)c2cc(C#CCn3ccnc3)ccc21 [Example 29, 3-(3,4-Difluoro-benzyl)-6-(3-imidazol-1-yl-prop-1-ynyl)-1-methyl-1H-quinazoline-2,4-dione] | 163 to 165 |
